In ChEMBL document CHEMBL1201862, “PubChem BioAssay data set” (2004):
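Exposure lasted 48 hours, with cells grown in 96-well plates and compounds tested at five concentrations. GI50 = concentration required for 50% inhibition of growth.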 The source made the active and inactive calls. Rule as the data show it: active = GI50 up to about 1.1 µM and inactive = higher.

Experiments:
Assay in all cases: growth of human tumour cells (NCI), 48 h
LOX IMVI = system: LOX IMVI
XF498 = system: XF498
SNB-19 = system: SNB-19
SF-295 = system: SF-295
CCRF-CEM = system: CCRF-CEM
M14 = system: M14
NCI-H460 = system: NCI-H460
HCT-116 = system: HCT-116
UACC-62 = system: UACC-62
HL-60 = system: HL-60
HCT-15 = system: HCT-15
DMS-273 = system: DMS-273
MOLT-4 = system: MOLT-4
LXFL 529 = system: LXFL 529
SNB-78 = system: SNB-78

Row | SMILES | GI50 (LOX IMVI) | GI50 (XF498) | GI50 (SNB-19) | GI50 (SF-295) | GI50 (CCRF-CEM) | GI50 (M14) | GI50 (NCI-H460) | GI50 (HCT-116) | GI50 (UACC-62) | GI50 (HL-60) | GI50 (HCT-15) | GI50 (DMS-273) | GI50 (MOLT-4) | GI50 (LXFL 529) | GI50 (SNB-78)
1 | COC12C=C(C)C(CC1)CC2C(=O)O (stereo not given) | > 100 µM (inactive) | > 100 µM (inactive) | > 100 µM (inactive) | > 100 µM (inactive) | > 100 µM (inactive) | > 100 µM (inactive) | > 100 µM (inactive) | > 100 µM (inactive) | > 100 µM (inactive) | > 100 µM (inactive) | > 100 µM | > 100 µM (inactive) | > 100 µM (inactive) | > 100 µM (inactive) | > 100 µM (inactive)
2 | COC(=O)[C@@]1(C(C)CC(=O)O)CCCCC1=O (stereo not given in full) | 93.8 µM (inactive) | > 100 µM (inactive) | > 100 µM (inactive) | > 100 µM (inactive) | > 100 µM (inactive) | > 100 µM (inactive) | > 100 µM (inactive) | > 100 µM (inactive) | > 100 µM (inactive) | > 100 µM (inactive) | 42.6 µM | 19.9 µM (inactive) | > 100 µM (inactive) | > 100 µM (inactive) | > 100 µM (inactive)
3 | O=C1/C(=C/c2ccc(Cl)cc2)CCC1CCN1CCOCC1 (stereo not given) | 39.8 µM (inactive) | 56.6 µM (inactive) | > 100 µM (inactive) | > 100 µM (inactive) | 29 µM (inactive) | > 100 µM (inactive) | 38.9 µM (inactive) | 53 µM (inactive) | > 100 µM (inactive) | 23 µM (inactive) | 36.3 µM | 57 µM (inactive) | 26.1 µM (inactive) | 56.4 µM (inactive) | > 100 µM (inactive)
4 | O=c1c2ccccc2[nH]c2c(O)ccc(O)c12 | 17.8 µM (inactive) | 16.8 µM (inactive) | 38.7 µM (inactive) | 17.3 µM (inactive) | 5.58 µM (inactive) | 15.9 µM (inactive) | 24.9 µM (inactive) | 20.7 µM (inactive) | 16.7 µM (inactive) | 2.64 µM (inactive) | 17.9 µM | 16.6 µM (inactive) | 7.91 µM (inactive) | 15.1 µM (inactive) | 19 µM (inactive)
